From BindingDB's records for patent US20240025884 (Dong-A St Co., 2024)

Molecular target: eIF-2-alpha kinase GCN2 (Homo sapiens, UniProt Q9P2K8)
Test: Biochemical Assay
Description: 384-well (Greiner #784075) (or 1536-well [Greiner #782075]) plates containing 60 nl (or 20 nl for 1536-well) of compound in 100% DMSO (10 concentrations serially diluted 3.16-fold) were prepared. Two copies of plates were used one for the GCN2 assay and a second for an artifact plate. Working reagents were prepared as follows reaction buffer: Tris pH 7.5 20 mM, MgCl2 5 mM, DTT 1 mM, Brij-35 0.005%, EGTA 0.5 mM in water; 2 enzyme solution: GCN2 (produced in-house) 1.6 nM in reaction buffer; 2 substrate solution: GFP-eIFS1 (Thermo Fisher Scientific, PV4809) 50 nM, ATP 0.2 mM, tRNA 0.4 mg/ml in reaction buffer; p-GFP-eIF2S1 (artifact) solution: p-GFP-eIFS1 (produced by incubation of 100 nM GFP-eIF2S1 in reaction buffer with 100 uM ATP and 1 nM PERK KD enzyme for 3 hr at room temperature) 2 nM in reaction buffer; 3 stop/antibody solution: p-GFP-EIF2S1 Th-Ab (Thermo Fisher Scientific, PV4816) 6 nM, AZ13933939 3 uM, BSA 3% in reaction buffer. Reagents were loaded onto a liquid dispenser (Certus FLEX, Trajan Scientific and Medical), and 3 ul (1 ul for 1536-well) of 2 enzyme solution, followed by 3 ul (1 ul for 1536-well) of 2 substrate solution was added to the plates. When small numbers of plates were processed, the enzyme solution was added first to all plates, then the valve used for the substrate solution was primed immediately prior to use. […]

eIF-2-alpha kinase GCN2, sequence (Q9P2K8 whole entry): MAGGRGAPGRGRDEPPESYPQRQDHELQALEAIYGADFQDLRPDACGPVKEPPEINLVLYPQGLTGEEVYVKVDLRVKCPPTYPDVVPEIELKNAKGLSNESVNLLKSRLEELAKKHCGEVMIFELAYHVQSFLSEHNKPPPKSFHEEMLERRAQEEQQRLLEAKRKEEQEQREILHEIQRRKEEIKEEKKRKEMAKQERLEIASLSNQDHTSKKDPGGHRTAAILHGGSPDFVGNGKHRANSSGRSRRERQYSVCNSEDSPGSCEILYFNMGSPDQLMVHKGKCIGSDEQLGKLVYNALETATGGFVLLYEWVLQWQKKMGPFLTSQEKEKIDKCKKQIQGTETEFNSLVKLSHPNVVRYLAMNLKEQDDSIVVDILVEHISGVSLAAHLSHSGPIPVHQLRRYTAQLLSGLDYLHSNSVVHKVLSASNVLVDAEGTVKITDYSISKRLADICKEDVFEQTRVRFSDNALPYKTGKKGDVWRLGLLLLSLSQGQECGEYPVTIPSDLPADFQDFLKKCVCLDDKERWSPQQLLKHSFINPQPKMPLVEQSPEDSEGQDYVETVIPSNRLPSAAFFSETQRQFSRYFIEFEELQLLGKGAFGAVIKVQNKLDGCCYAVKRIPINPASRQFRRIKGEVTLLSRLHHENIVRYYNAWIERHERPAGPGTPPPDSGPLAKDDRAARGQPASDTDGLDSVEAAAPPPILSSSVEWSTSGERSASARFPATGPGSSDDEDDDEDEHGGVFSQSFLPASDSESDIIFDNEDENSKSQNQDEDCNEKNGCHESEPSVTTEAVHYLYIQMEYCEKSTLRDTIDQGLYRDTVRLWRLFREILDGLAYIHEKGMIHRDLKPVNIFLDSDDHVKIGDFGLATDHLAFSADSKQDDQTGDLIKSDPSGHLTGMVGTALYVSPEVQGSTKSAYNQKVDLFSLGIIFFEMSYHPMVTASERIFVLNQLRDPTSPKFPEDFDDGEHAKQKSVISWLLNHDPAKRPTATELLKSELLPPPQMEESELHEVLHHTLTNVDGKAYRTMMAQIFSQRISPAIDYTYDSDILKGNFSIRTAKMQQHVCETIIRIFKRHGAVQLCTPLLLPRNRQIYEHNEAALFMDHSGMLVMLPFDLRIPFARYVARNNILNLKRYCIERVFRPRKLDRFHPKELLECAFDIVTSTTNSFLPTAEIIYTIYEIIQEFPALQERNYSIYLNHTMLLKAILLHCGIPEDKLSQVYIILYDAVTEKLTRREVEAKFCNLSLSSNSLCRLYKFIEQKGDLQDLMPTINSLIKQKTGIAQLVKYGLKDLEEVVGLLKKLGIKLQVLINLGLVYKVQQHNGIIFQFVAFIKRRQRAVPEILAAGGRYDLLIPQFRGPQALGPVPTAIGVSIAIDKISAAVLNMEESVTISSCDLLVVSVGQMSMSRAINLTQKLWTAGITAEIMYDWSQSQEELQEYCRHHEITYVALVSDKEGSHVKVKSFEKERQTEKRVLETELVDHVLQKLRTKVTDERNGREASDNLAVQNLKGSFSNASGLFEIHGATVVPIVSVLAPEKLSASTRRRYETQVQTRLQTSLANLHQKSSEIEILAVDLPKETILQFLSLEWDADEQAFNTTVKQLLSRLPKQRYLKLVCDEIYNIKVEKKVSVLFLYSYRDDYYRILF

| IC50 | Compound |
| --- | --- |
| < 0.01 µM | Cc1cc(Nc2ncc(Cl)c(-c3c[nH]c4c(NC(=O)CN5CC[C@H](Oc6ccnc(NC7CC7)n6)C5)cccc34)n2)nn1C [US20240025884, Example 10] |
| < 0.01 µM | Cc1cnc(Nc2cc(C)n(C)n2)nc1-c1c[nH]c2c(N3Cc4c(/C=C/C(=O)NC(C)C)cccc4C3=O)cccc12 [US20240025884, Example 370] |
